Source: patent US11802120B2, “Fused cyclic urea derivatives as CRHR2 antagonist” (RaQualia Pharma Inc., priority 2018, dated 2023)

Biological target: T1, human CRHR2-alpha (Homo sapiens, UniProt Q13324)
T1 sequence (Q13324 1-411): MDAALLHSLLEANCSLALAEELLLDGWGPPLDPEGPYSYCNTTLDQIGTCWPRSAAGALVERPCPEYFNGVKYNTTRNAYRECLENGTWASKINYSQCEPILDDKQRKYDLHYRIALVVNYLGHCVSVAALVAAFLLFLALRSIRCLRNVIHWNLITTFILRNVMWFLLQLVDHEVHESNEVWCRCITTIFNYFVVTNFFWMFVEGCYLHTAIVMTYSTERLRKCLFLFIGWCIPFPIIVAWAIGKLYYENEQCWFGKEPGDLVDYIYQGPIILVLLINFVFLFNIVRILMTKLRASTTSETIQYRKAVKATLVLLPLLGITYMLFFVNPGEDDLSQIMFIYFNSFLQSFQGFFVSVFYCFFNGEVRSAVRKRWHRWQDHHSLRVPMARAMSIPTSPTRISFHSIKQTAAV
Experiment: cAMP functional assay for human CRHR2 (LANCE Ultra cAMP, TR-FRET)
Format: cell-based
Conditions: CHO-K1 cells expressing human CRHR2-alpha, agonist human urocortin2 at EC80, cAMP; read-out: IC50 against CRHR2
In short: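 Inhibition of agonist-driven cAMP was assessed in recombinant CHO-K1 cells at 25° C, using 30 min compound pretreatment and 30 min stimulation with EC80 human urocortin2 (CRHR2) or CRF (CRHR1). IC50 came from dose-response fitting.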

Row | Structure (SMILES) | IC50 [nM]
1 | Cc1ccc(-n2c(=O)n(C[C@H]3CC[C@H](NC(=O)c4cc(Cl)cnc4C(F)F)CC3)c3ccccc32)cn1 [Example 324, 5-chloro-2-(difluoromethyl)-N-((1r,4r)-4-((3-(6-methyl-pyridin-3-yl)-2-oxo-2,3-dihydro-1H-benzo[d]imidazol-1-yl)methyl)cyclohexyl)nico-tinamide] | < 300
2 | CNC(=O)c1ccc(-n2c(=O)n(C[C@H]3CC[C@H](NC(=O)c4cc(Cl)cnc4C(F)F)CC3)c3ccccc32)cn1 [Example 325, 5-(3-(((1r,4r)-4-(5-chloro-2-(difluoromethyl)nicotina-mido)cyclohexyl)methyl)-2-oxo-2,3-dihydro-1H-benzo [d]imidazol-1-yl)-N-methylpicolinamide] | < 300
3 | Cn1cnc2cc(-n3c(=O)n(C[C@H]4CC[C@H](NC(=O)c5cc(Cl)cnc5C(F)(F)F)CC4)c4ccccc43)ccc21 [Example 326, 5-chloro-N-((1r,4r)-4-((1′-methyl-2-oxo-1′H-[1,5′-bibenzo[d]imidazol]-3(2H)-yl)methyl)cyclohexyl)-2-(trifluoromethyl)nicotinamide] | < 300
4 | O=C(N[C@H]1CC[C@H](Cn2c(=O)n(-c3ccc4cncn4c3)c3ccccc32)CC1)c1cc(Cl)cnc1C(F)(F)F [Example 327, 5-chloro-N-((1r,4r)-4-((3-(imidazo[1,5-a]pyridin-6-yl)-2-oxo-2,3-dihydro-1H-benzo[d]imidazol-1-yl)methyl)cyclohexyl)-2-(trifluoromethyl)nicotinamide] | < 300
5 | CNC(=O)c1ccc(-n2c(=O)n(C[C@H]3CC[C@H](NC(=O)c4cc(Cl)cnc4N(C)C)CC3)c3ccccc32)cn1 [Example 328, 5-(3-(((1r,4r)-4-(5-chloro-2-(dimethylamino)nicotinamido)cyclohexyl)methyl)-2-oxo-2,3-dihydro-1H-benzo[d]imidazol-1-yl)-N-methyl-picolinamide] | < 300
6 | COCc1ncc(Cl)cc1C(=O)N[C@H]1CC[C@H](Cn2c(=O)n(-c3ccc(C)nc3)c3ccccc32)CC1 [Example 329, 5-chloro-2-(methoxymethyl)-N-((1r,4r)-4-((3-(6-methyl-pyridin-3-yl)-2-oxo-2,3-dihydro-1H-benzo[d]imidazol-1-yl)methyl)cyclohexyl) nicotinamide] | < 300
7 | Cc1cc(C)c(-n2c(=O)n(C[C@H]3CC[C@H](NC(=O)c4cc(Cl)cnc4C)CC3)c3ccccc32)cn1 [Example 330, 5-chloro-N-((1r,4r)-4-((3-(4,6-dimethylpyridin-3-yl)-2-oxo-2,3-dihydro-1H-benzo [d]imidazol-1-yl)methyl)cyclohexyl)-2-methylnico-tinamide] | < 300
8 | Cc1ncc(Cl)cc1C(=O)N[C@H]1CC[C@H](Cn2c(=O)n(-c3ccnc(C)c3C)c3ccccc32)CC1 [Example 331, 5-chloro-N-((1r,4r)-4-((3-(2,3-dimethylpyridin-4-yl)-2-oxo-2,3-dihydro-1H-benzo [d]imidazol-1-yl)methyl)cyclohexyl)-2-methylnico-tinamide] | < 300
9 | CNc1ccc(-n2c(=O)n(C[C@H]3CC[C@H](NC(=O)c4cc(Cl)cnc4C(F)(F)F)CC3)c3ccccc32)cn1 [Example 332, 5-chloro-N-((1r,4r)-4-((3-(6-(methylamino)pyridin-3-yl)-2-oxo-2,3-dihydro-1H-benzo[d]imidazol-1-yl)methyl)cyclohexyl)-2-(trifluoromethyl) nicotinamide] | < 300
10 | CN(C)c1ccc(-n2c(=O)n(C[C@H]3CC[C@H](NC(=O)c4cc(Cl)cnc4C(F)(F)F)CC3)c3ccccc32)cn1 [Example 333, 5-chloro-N-((1r,4r)-4-((3-(6-(dimethylamino)pyridin-3-yl)-2-oxo-2,3-dihydro-1H-benzo [d]imidazol-1-yl)methyl)cyclohexyl)-2-(trifluoromethyl) nicotinamide] | < 300
11 | O=C(N[C@H]1CC[C@H](Cn2c(=O)n(-c3ccncc3Cl)c3ccccc32)CC1)c1cc(Cl)cnc1C(F)(F)F [Example 334, 5-chloro-N-((1r,4r)-4-((3-(3-chloropyridin-4-yl)-2-oxo-2,3-dihydro-1H-benzo[d]imidazol-1-yl)methyl)cyclo-hexyl)-2-(trifluoromethyl) nicotinamide] | < 300
12 | CNC(=O)c1ccc(-n2c(=O)n(C[C@H]3CC[C@H](NC(=O)c4cc(Cl)cnc4COC)CC3)c3ccccc32)cn1 [Example 335, 5-(3-(((1r,4r)-4-(5-chloro-2-(methoxymethyl)nico-tinamido)cyclohexyl)methyl)-2-oxo-2,3-dihydro-1H-benzo[d]imidazol-1-yl)-N-methylpicolinamide] | < 300
13 | Cc1cc(-n2c(=O)n(C[C@H]3CC[C@H](NC(=O)c4cc(Cl)cnc4C)CC3)c3ccccc32)c(C)cn1 [Example 336, 5-chloro-N-((1r,4r)-4-((3-(2,5-dimethylpyridin-4-yl)-2-oxo-2,3-dihydro-1H-benzo[d]imidazol-1-yl)methyl)cyclohexyl)-2-methylnicotinamide] | < 300
14 | Cc1ncc(Cl)cc1C(=O)N[C@H]1CC[C@H](Cn2c(=O)n(-c3cccc4cccnc34)c3ccccc32)CC1 [Example 337, 5-chloro-2-methyl-N-((1r,4r)-4-((2-oxo-3-(quinolin-8-yl)-2,3-dihydro-1H-benzo[d]imidazol-1-yl)methyl)cyclo-hexyl)nicotinamide] | < 300
15 | Cc1ncc(Cl)cc1C(=O)N[C@H]1CC[C@H](Cn2c(=O)n(-c3cncc4ccccc34)c3ccccc32)CC1 [Example 338, 5-chloro-N-((1r,4r)-4-((3-(isoquinolin-4-yl)-2-oxo-2,3-dihydro-1H-benzo[d]imidazol-1-yl)methyl)cyclo-hexyl)-2-methylnicotinamide] | < 300
16 | Cc1ncc(Cl)cc1C(=O)N[C@H]1CC[C@H](Cn2c(=O)n(-c3ccc4nn(C5COC5)nc4c3)c3ccccc32)CC1 [Example 340, 5-chloro-2-methyl-N-((1r,4r)-4-((3-(2-(oxetan-3-yl)-2H-benzo[d][1,2,3]triazol-5-yl)-2-oxo-2,3-dihydro-1H-benzo [d]imidazol-1-yl)methyl)cyclohexyl)nicotinamide] | < 300
17 | Cc1ncc(Cl)cc1C(=O)N[C@H]1CC[C@H](Cn2c(=O)n(-c3ccc4c(c3)nnn4C3COC3)c3ccccc32)CC1 [Example 341, 5-chloro-2-methyl-N-((1r,4r)-4-((3-(1-(oxetan-3-yl)-1H-benzo[d][1,2,3]triazol-5-yl)-2-oxo-2,3-dihydro-1H-benzo[d]imidazol-1-yl)methyl)cyclohexyl)nicotinamide] | < 300
18 | O=C(N[C@H]1CC[C@H](Cn2c(=O)n(-c3ccn4cncc4c3)c3ccccc32)CC1)c1cc(Cl)cnc1C(F)(F)F [Example 342, 5-chloro-N-((1r,4r)-4-((3-(imidazo[1,5-a]pyridin-7-yl)-2-oxo-2,3-dihydro-1H-benzo[d]imidazol-1-yl)methyl)cyclohexyl)-2-(tri-fluoromethyl)nicotinamide] | < 300
19 | Cc1ncc(Cl)cc1C(=O)N[C@H]1CC[C@H](Cn2c(=O)n(-c3cccc4cnccc34)c3ccccc32)CC1 [Example 343, 5-chloro-N-((1r,4r)-4-((3-(isoquinolin-5-yl)-2-oxo-2,3-dihydro-1H-benzo[d]imidazol-1-yl)methyl)cyclo-hexyl)-2-methylnicotinamide] | < 300
